Assay: xn = mol fraction of the nth substance listed

Nc1ccccc1 + CCCO
viscosity [mPa·s]
Details | 294.15 K | 298.15 K | 303.15 K | 308.15 K | 313.15 K
100 kPa, x1 = 0.091 | – | – | 1.673 | – | 1.319
100 kPa, x1 = 0.1839 | – | – | 1.635 | – | 1.275
100 kPa, x1 = 0.2978 | – | – | 1.609 | – | 1.255
100 kPa, x1 = 0.3949 | – | – | 1.626 | – | 1.271
100 kPa, x1 = 0.4741 | – | – | 1.673 | – | 1.31
100 kPa, x1 = 0.5952 | – | – | 1.819 | – | 1.399
100 kPa, x1 = 0.7405 | – | – | 2.129 | – | 1.602
100 kPa, x1 = 0.8903 | – | – | 2.582 | – | 1.958
101.33 kPa, x1 = 0.1006 | 2.097 | 1.902 | 1.685 | 1.501 | 1.341
101.33 kPa, x1 = 0.1991 | 2.123 | 1.93 | 1.703 | 1.516 | 1.357
101.33 kPa, x1 = 0.2994 | 2.219 | 1.993 | 1.753 | 1.56 | 1.394
101.33 kPa, x1 = 0.3992 | 2.336 | 2.098 | 1.846 | 1.633 | 1.446
101.33 kPa, x1 = 0.5007 | 2.499 | 2.234 | 1.952 | 1.727 | 1.526
101.33 kPa, x1 = 0.6011 | 2.689 | 2.398 | 2.092 | 1.842 | 1.638
101.33 kPa, x1 = 0.7011 | 2.963 | 2.641 | 2.304 | 2 | 1.791
101.33 kPa, x1 = 0.8002 | 3.289 | 2.925 | 2.575 | 2.241 | 1.981
101.33 kPa, x1 = 0.8983 | 3.671 | 3.245 | 2.81 | 2.455 | 2.16

CCCCOC(=O)c1ccccc1 + CC#N
viscosity [mPa·s], 101.33 kPa
Details | x1 = 0.125 | x1 = 0.244 | x1 = 0.355 | x1 = 0.463 | x1 = 0.563 | x1 = 0.654 | x1 = 0.75 | x1 = 0.83 | x1 = 0.919
293.15 K | 0.446 | 0.486 | 0.533 | 0.629 | 0.762 | 0.956 | 1.173 | 1.57 | 2.131
303.15 K | 0.402 | 0.434 | 0.472 | 0.551 | 0.655 | 0.808 | 0.979 | 1.27 | 1.69
313.15 K | 0.364 | 0.392 | 0.424 | 0.483 | 0.567 | 0.696 | 0.825 | 1.056 | 1.368
323.15 K | 0.313 | 0.352 | 0.382 | 0.43 | 0.461 | 0.603 | 0.667 | 0.9 | 1.119

CCNCC + CNC(C)=O
308.15 K, 101 kPa
Details | viscosity [mPa·s]
x2 = 0.0413 | 0.2729
x2 = 0.1815 | 0.4061
x2 = 0.3505 | 0.6727
x2 = 0.5056 | 1.02
x2 = 0.5776 | 1.254
x2 = 0.6715 | 1.563
x2 = 0.7881 | 2.064
x2 = 0.8957 | 2.614
x2 = 0.9724 | 3.097

Cc1ccc(NC(=O)NCCCCCCCCCCC(C)C)cc1NC(=O)NCCCCCCCCCCC(C)C + CCCCC
Details | viscosity [mPa·s]
293.15 K, 100 kPa, x1 = 0.0001 | 204

CCCC(=O)OC + Clc1ccccc1
viscosity [mPa·s], 101.3 kPa
Details | 308.15 K | 318.15 K
x1 = 0.0851 | 0.648 | 0.601
x1 = 0.1025 | 0.647 | 0.6
x1 = 0.2257 | 0.63 | 0.588
x1 = 0.3019 | 0.621 | 0.58
x1 = 0.4004 | 0.607 | 0.567
x1 = 0.5036 | 0.593 | 0.552
x1 = 0.5911 | 0.58 | 0.54
x1 = 0.6834 | 0.564 | 0.527
x1 = 0.8223 | 0.541 | 0.504
x1 = 0.8997 | 0.525 | 0.489
x1 = 0.9522 | 0.515 | 0.479

CCNCC + O
297.65 K, 101.33 kPa
Details | viscosity [mPa·s]
x1 = 0.0033 | 0.928
x1 = 0.0087 | 1.051
x1 = 0.0165 | 1.24
x1 = 0.023 | 1.405
x1 = 0.0271 | 1.508
x1 = 0.0342 | 1.691
x1 = 0.0458 | 1.985
x1 = 0.0592 | 2.305
x1 = 0.0733 | 2.604
x1 = 0.0885 | 2.863
x1 = 0.104 | 3.037
x1 = 0.1203 | 3.096
x1 = 0.1385 | 3.121

ClCc1ccccc1 + COc1ccccc1
303.15 K, 101 kPa
Details | viscosity [mPa·s]
x2 = 0.1045 | 1.245
x2 = 0.1911 | 1.362
x2 = 0.304 | 1.438
x2 = 0.4094 | 1.466
x2 = 0.5182 | 1.45
x2 = 0.6162 | 1.394
x2 = 0.7196 | 1.3
x2 = 0.8053 | 1.192
x2 = 0.9137 | 1.061

COCCOCCOCCO + ClC(Cl)=C(Cl)Cl
298.15 K, 101.33 kPa
Details | viscosity [mPa·s]
x1 = 0.0078 | 0.862
x1 = 0.016 | 0.883
x1 = 0.0295 | 0.915
x1 = 0.047 | 0.956
x1 = 0.0598 | 0.989
x1 = 0.0696 | 1.016
x1 = 0.0802 | 1.046
x1 = 0.0924 | 1.081
x1 = 0.1201 | 1.162
x1 = 0.1568 | 1.28
x1 = 0.2009 | 1.432
x1 = 0.2413 | 1.592
x1 = 0.2894 | 1.795
x1 = 0.3457 | 2.047
x1 = 0.3797 | 2.209
x1 = 0.4041 | 2.334
x1 = 0.462 | 2.64
x1 = 0.4933 | 2.812
x1 = 0.5379 | 3.072
x1 = 0.5783 | 3.326
x1 = 0.6154 | 3.56
x1 = 0.6587 | 3.856
x1 = 0.7026 | 4.163
x1 = 0.7393 | 4.431
x1 = 0.787 | 4.797
x1 = 0.8264 | 5.117
x1 = 0.886 | 5.597
x1 = 0.9108 | 5.82
x1 = 0.9403 | 6.053
x1 = 0.9649 | 6.276
x2 = 0.0193 | 6.411

Nc1ccccc1 + CCC(C)O
303 K, 101.33 kPa
Details | viscosity [mPa·s]
x1 = 0.1 | 2.052
x1 = 0.2 | 1.978
x1 = 0.3 | 1.954
x1 = 0.4 | 1.944
x1 = 0.5 | 2.076
x1 = 0.6 | 2.156
x1 = 0.8 | 2.504
x1 = 0.9 | 2.835

C1COCCOCCOCCOCCO1 + CN(C)C=O
101 kPa
Details | viscosity [mPa·s]
293.15 K, x1 = 0.00344 | 0.8668
293.15 K, x1 = 0.0059 | 0.8771
293.15 K, x1 = 0.008679 | 0.8888
293.15 K, x1 = 0.01131 | 0.8997
293.15 K, x1 = 0.01335 | 0.9089
293.15 K, x1 = 0.01528 | 0.9166
298.15 K, x1 = 0.003438 | 0.8165
298.15 K, x1 = 0.006613 | 0.8287
298.15 K, x1 = 0.009181 | 0.8386
298.15 K, x1 = 0.01161 | 0.8485
298.15 K, x1 = 0.0137 | 0.8568
298.15 K, x1 = 0.01547 | 0.8639
303.15 K, x1 = 0.002196 | 0.7595
303.15 K, x1 = 0.004812 | 0.7687
303.15 K, x1 = 0.006882 | 0.7758
303.15 K, x1 = 0.008916 | 0.7832
303.15 K, x1 = 0.01094 | 0.7907
303.15 K, x1 = 0.01259 | 0.797
308.15 K, x1 = 0.003532 | 0.7213
308.15 K, x1 = 0.006367 | 0.7307
308.15 K, x1 = 0.008768 | 0.7387
308.15 K, x1 = 0.01108 | 0.7463
308.15 K, x1 = 0.01321 | 0.7538
308.15 K, x1 = 0.01506 | 0.7599

CCNCC + CCCCCCCCCCO
viscosity [mPa·s], 101 kPa
Details | x1 = 0.5973 | x2 = 0.0971 | x2 = 0.1985 | x2 = 0.2971 | x2 = 0.4003 | x2 = 0.5148 | x2 = 0.6024 | x2 = 0.7216 | x2 = 0.8014 | x2 = 0.8997
298.15 K | – | 0.472 | 0.762 | 1.184 | 1.834 | 2.865 | 3.979 | 5.858 | 7.47 | 9.664
303 K | 2.015 | – | – | – | – | – | – | – | – | –
313.15 K | – | 0.378 | 0.576 | 0.851 | 1.254 | 1.87 | 2.556 | 3.617 | 4.497 | 5.631

CC(C)(C)O + CCC(C)=O
viscosity [mPa·s]
Details | 298.15 K | 303.15 K | 308.15 K | 313.15 K | 318.15 K
101 kPa, x1 = 0.0925 | 0.3917 | 0.3748 | 0.3599 | – | –
101 kPa, x1 = 0.1893 | 0.4117 | 0.3946 | 0.3737 | – | –
101 kPa, x1 = 0.2885 | 0.4407 | 0.4203 | 0.3964 | – | –
101 kPa, x1 = 0.3835 | 0.4875 | 0.452 | 0.422 | – | –
101 kPa, x1 = 0.4877 | 0.5818 | 0.5397 | 0.4915 | – | –
101 kPa, x1 = 0.5862 | 0.7295 | 0.6627 | 0.602 | – | –
101 kPa, x1 = 0.6907 | 0.9865 | 0.8797 | 0.7882 | – | –
101 kPa, x1 = 0.7895 | 1.424 | 1.237 | 1.085 | – | –
101 kPa, x1 = 0.8935 | 2.253 | 1.879 | 1.588 | – | –
101.3 kPa, x1 = 0.0985 | 0.423 | 0.401 | 0.38 | 0.361 | 0.343
101.3 kPa, x1 = 0.1968 | 0.464 | 0.438 | 0.413 | 0.391 | 0.37
101.3 kPa, x1 = 0.2962 | 0.52 | 0.487 | 0.457 | 0.429 | 0.405
101.3 kPa, x1 = 0.3941 | 0.595 | 0.553 | 0.514 | 0.48 | 0.449
101.3 kPa, x1 = 0.4949 | 0.705 | 0.647 | 0.596 | 0.551 | 0.511
101.3 kPa, x1 = 0.5928 | 0.859 | 0.779 | 0.708 | 0.647 | 0.593
101.3 kPa, x1 = 0.695 | 1.116 | 0.99 | 0.884 | 0.793 | 0.716
101.3 kPa, x1 = 0.8003 | 1.577 | 1.357 | 1.178 | 1.031 | 0.909
101.3 kPa, x1 = 0.9037 | 2.474 | 2.029 | 1.687 | 1.421 | 1.212
